Experimental data from patent US20020071842A1, “Soluble CD1 compositions and uses thereof” (priority 2000, published 2002).

System: human CD1d-restricted T cell clones
Assay: Flow cytometric staining with lipid treated multimerized CD1d-Fc aggregates
Type: cell-based
Conditions: flow cytometry, human CD1d-Fc/Alexa 488 protein A aggregate, 40:1 lipid to fusion protein, compared with DMSO alone
Experimental: To facilitate binding to CD1 specific T cells for detection by flow cytometry, a highly multimerized form of the CD1d fusion protein was formed using fluorescently labeled protein A molecules. Protein A molecules spontaneously associate in solution at neutral pH with immunoglobulin Fc regions, forming complexes containing four Fc molecules and two protein A molecules (4+2 complexes, reference 2). The human CD1d-Fc fusion protein was incubated with Alexa 488 dye labeled protein A, and the 4+2 complexes purified by size exclusion chromatography on a Pharmacia Superose 6 column using PBS pH 7.2 as a running buffer. The purified 4+2 aggregates were concentrated to 100 μg/ml with ovalbumin as a carrier protein. The CD1d-Fc aggregate was then pre-incubated for 24 to 48 hours at 37° C. with antigenic glycolipids dissolved in DMSO at a 40:1 molar ratio of lipid to fusion protein, or with an equivalent volume of DMSO alone as a negative control. The T cell staining was performed at room temperature or 4° C. for 20 min, at a concentration of 40 μg/ml of the lipid or control treated CD1d-Fc aggregate.
To facilitate binding to CD1 specific T cells for detection by flow cytometry, a highly multimerized form of the CD1d fusion protein is formed using fluorescently labeled protein A molecules. Protein A molecules spontaneously associate in solution at neutral pH with immunoglobulin Fc regions, forming complexes containing four Fc molecules and two protein A molecules (4+2 complexes, Langone, J.J. et al, Molec. and Cell. Biochem, 65(2):159-70 (1985)). The human CD1d-Fc fusion protein was incubated with Alexa 488-dye labeled protein A, and the 4+2 complexes purified by size exclusion chromatography on a Phannacia Superose 6 column using PBS pH 7.2 as a running buffer. The purified 4+2 aggregates are concentrated to 100 μg/ml with ovalbumin as a carrier protein. The CD1d-Fc aggregate is then pre-incubated for 24 to 48 hours at 37° C. with antigenic glycolipids dissolved in DMSO at a 40:1 molar ratio of lipid to fusion protein, or with an equivalent volume of DMSO alone as a negative control. The T cell staining is performed at room temperature or 4° C. for 20 min, at a concentration of 40 μg/ml of the lipid or control treated CD1d-Fc aggregate.
Flow cytometric analysis of a CD1d-restricted T cell clone stained with the multimerized CD1d-Fc fusion protein (abbreviated as “hd(8)-fl”) was performed as follows. Staining with CD1d-Fc treated with lipid antigens dissolved in DMSO was compared with CD1d-Fc treated with DMSO alone as a negative control. The specific lipid antigen used were: aGalCer is α-galactosyl ceramide (KRN7000); aGlcCer is α-glucosyl ceramide; aManCer is α-mannosyl ceramide; bGalCer is β-galactosyl ceramide; Cer is ceramide (acylphytosphingolipid).
Flow cytometric analysis of a series of human T cell clones stained with the multimerized CD1d-Fc fusion protein, treated with α-GalCer or DMSO alone also was performed, including staining of two different CD1d-restricted (“NKT”) T cell clones DN2.B9 and DN1.10B3. Four other T cell clones that are not CD1d-restricted also were stained.

Row | Compound | staining of CD1d-restricted T cell clones by lipid treated CD1d-Fc aggregate (listed as aGalCer) | staining of CD1d-restricted T cell clones by lipid treated CD1d-Fc aggregate
1 | CCCCCCCCCCCCCCCCCCCCCCCCCC(=O)N[C@@H](CO[C@H]1O[C@H](CO)[C@H](O)[C@H](O)[C@H]1O)[C@H](O)[C@H](O)CCCCCCCCCCCCCC [α-GalCer, α-galactosylceramide] | positive staining | 
2 | unglycosylated ceramide |  | did not stain above background levels
3 | β-galactosylceramide [β-GalCer] |  | did not stain above background levels
